Experiments:
[1] = HMR plasma levels assay (LC-MS/MS); format: in vivo; settings: rat, oral, rats fed 4 weeks with 5% sucrose enriched food with HMR (10 mg/Kg per day), all active treatment groups
Method: Concentration of HMR and its major metabolite enterolactone was measured in plasma samples (50 μL) from rats fed for 4 weeks with 5% sucrose enriched food with HMR, using an LC-MS/MS system (AP14500 Qtrap ABSciex).
Calibration curves in the range from 0.1 ng/mL to 100 ng/mL were obtained from measurements on control samples containing the pure analytes, prepared from stock solutions of HMR and enterolactone in MeOH at the concentration of 1 mg/mL. Said stock solutions were diluted in acetonitrile (ACN) at a concentration of 250 μg/mL, then working solutions were prepared by sequential dilution in ACN.
45 μL of plasma and 5 μL of working solution were added to 300 μL of an ACN solution containing the internal standard catechin (conc. 200 ng/mL). After mixing, samples were centrifuged for 5 min at 3000 g at 5° C., and injected into LC-MS/MS.
The plasma samples from the in vivo treatment were prepared subjecting 50 μl of sample to centrifugation for 5 min at 3000 g at 5° C., and were injected into LC-MS/MS.
Calibration curves allowed determining, by comparison, the amount of each analytes in the plasma samples obtained from the rats of the study.

[2] = Food consumption and body weight monitoring; format: in vivo, rat; settings: monitored daily throughout the experiments
Description: Food consumption and body weight changes were monitored daily.

[3] = Oxidative stress evaluation (plasma GSH/GSSG, Glutathione assay kit); format: in vivo, rat; settings: POST group; not reaching statistical significance
Method: Plasma levels of reduced (GSH) and oxidized (GSSG) glutathione were estimated by using a biochemical Glutathione assay kit (Cayman Chemical), as an index of antioxidant effect of HMR treatment.
Results were expressed as a GSH/GSSG ratio.
Since no significant difference in neuroinflammation was observed between vehicle-treated animals and animals that received HMR before the intra-striatal injection of 6-OHDA, oxidative stress was evaluated only in the groups treated with HMR after 6-OHDA infusion.

[4] = tested on: microglia in the lesioned SNc; experiment: Neuroinflammation evaluation through microglia activation assessment (CD11b staining of lesioned SNc); format: in vivo, rat; parameters: key to Colburn's score (microglia morphology): Resting stage (score 0): microglial cells are ramified, well spaced-out, with a small cell body.; Stage 1 (score +): microglial cells are ramified, with a decreased intercellular space.; Stage 2 (score ++): microglial cells show a loss of ramification and increased density.; Stage 3 (score +++): microglial cells show short and think ramifications; settings: for Colburn's score (microglia morphology): control group ++
Method: The evaluation of the 6-OHDA induced neuroinflammation was carried out via immunofluorescent staining of coronal SNc sections of both HMR-treated and control animals.
Microglia activation was assessed by observing sections of the lesioned SNc stained for CD11 b, under low and medium magnification (20×-40×), both quantitatively, by counting the microglial cells in the lesioned SNc, and qualitatively, analysing the morphological changes of the cells.
Mouse anti CD11b (MCA275R, Serotec, 1:300) primary antibody was used to assess microglia activation and density in the SNc. Anti-TH primary antibody was added for localization and cell count. Goat anti-mouse AlexaFluor488 and goat anti-rabbit AlexaFluor594 (Life Sciences, 1:300) were used as secondary antibodies.
Cell count was performed by analysing three different SNc sections, chosen according to rostro-caudal coordinates.
Morphological changes mirroring the state of activation were scored according to the Colburn scale. Cell density was assessed by counting CD11 b+ cells from a stack of 16 pictures (in a 0.04 mm^2 frame, 1 μm-thick, 40× magnification) taken from three discrete areas of the same SNc section.
Colburn's scale takes into account four activation stages, which differ for the cells morphology and density, and are summarized below.
Resting stage (score 0): microglial cells are ramified, well spaced-out, with a small cell body.
Stage 1 (score +): microglial cells are ramified, with a decreased intercellular space.
Stage 2 (score ++): microglial cells show a loss of ramification and increased density.
Stage 3 (score +++): microglial cells show short and think ramifications.

[5] = tested on: microglia in the lesioned SNc; experiment: Analysis of microglia polarization (CD32+ M1 / CD206+ M2); format: in vivo, rat; settings: POST group; vehicle mainly M1, no M2 detected
Method: The analysis of microglia polarization was performed by evaluating the percentage of CD32+ and CD206+ cells, respectively M1 and M2 phenotypes marker, of the total microglia cells in the lesioned SNc, using respectively CD32 or CD206 (Santa Cruz, 1:300) antibodies.
Since no significant differences in microglial activation were observed between vehicle-treated animals and animals that received HMR before the intra-striatal injection of 6-OHDA, microglia polarization was evaluated only in the groups treated with HMR after 6-OHDA infusion.

[6] = tested on: rodent model of Parkinson's disease-like nigrostriatal neurodegeneration caused by stereotaxic injection of 6-OHDA; experiment: Nigrostriatal damage evaluation by TH immunohistochemistry in 6-OHDA model; format: in vivo, rat
[7] = PRE group, day 28 post-surgery, same in HMR-treated and control animals

In the case of `COc1cc(CC2C(=O)OCC2C(O)c2ccc(O)c(OC)c2)ccc1O` (centres unmarked) [HMR, 7-hydroxymatairesinol], the concentration at 4 weeks [1] is reported as 0.92 ± 0.74 ng/mL, the “Food intake or weight gain, treated versus untreated rats” value [2] is reported as “No differences” and the “Plasma GSH/GSSG ratio versus vehicle-treated animals” value [3] is reported as “trend toward an increased GSH/GSSG ratio”. The “Colburn's score (microglia morphology)” value ([4]; POST group (HMR after 6-OHDA)) was “+”, the “Density of CD11b+ cells in the SNc” value ([4]; POST group, vehicle-treated group 750 cells/mm^2, significant decrease) was 550 cells/mm^2 and the “Microglial cell count versus vehicle-treated animals” value ([4]; PRE group) was “no differences in the microglial cell count”. For the same compound, the “Colburn's score (microglia morphology)” value ([4]; PRE group (HMR before 6-OHDA)) was “++”, the “Number of CD11b+ cells per mm^2 of SNc” value ([4]; PRE group, average, both HMR and vehicle groups) was 750 cells/mm^2 and the “Microglia polarization phenotype (M1 CD32+ / M2 CD206+)” value [5] was “mainly oriented toward the neuroprotective, M2 (CD11b+/CD206+) phenotype”. The “Reduction of TH+ terminal loss in lesioned striatum versus control” value ([6]; POST group: HMR 10 mg/Kg per day for 4 weeks after 6-OHDA, day 28, p<0.05) was “about 32%”, the “Reduction of the 6-OHDA induced loss of TH+ neurons in lesioned SNc versus vehicle” value ([6]; POST group: HMR 10 mg/Kg per day for 4 weeks after 6-OHDA, day 28, p=0.055) was “about 20%” and the “TH+ neurons depletion in the SNc, lesioned side versus contralateral hemisphere” value [6, 7] was “up to 55%”. For the same compound, the “TH+ terminals loss in the striatum, lesioned side” value [6, 7] was at most 65% and the “Nigrostriatal damage (striatal or SNc level) versus vehicle-treated animals” value ([6]; PRE group: HMR 10 mg/Kg per day in food for 4 weeks before 6-OHDA) was “no differences in nigrostriatal damage”.

Source: patent publication US11590101B2, “Use of a composition comprising 7-hydroxymatairesinol” (LINNEA S.A., priority 2017, dated 2023)
